Measured values reported in PubChem BioAssay (NCI).
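Each compound was tested at five concentrations against cells in 96-well plates for 48 hours. Abbreviation: GI50, concentration required for 50% inhibition of growth. The concentration for full growth arrest is given as TGI.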

What was measured:
Assay in all cases: growth of human tumour cells (NCI), 48 h
[1] = system: 786-0 renal
[2] = system: A498 renal
[3] = system: A549 NSCLC
[4] = system: ACHN renal
[5] = system: BT-549 breast
[6] = system: CAKI-1 renal
[7] = system: CCRF-CEM leukemia
[8] = system: COLO 205 colon
[9] = system: DU-145 prostate
[10] = system: HCC-2998 colon
[11] = system: HCT-116 colon
[12] = system: HCT-15 colon
[13] = system: HL-60(TB) leukemia
[14] = system: HOP-62 NSCLC
[15] = system: HOP-92 NSCLC
[16] = system: HS 578T breast
[17] = system: HT29 colon
[18] = system: IGROV1 ovarian
[19] = system: K-562 leukemia
[20] = system: KM12 colon
[21] = system: LOX IMVI melanoma
[22] = system: M14 melanoma
[23] = system: MALME-3M melanoma
[24] = system: MCF7 breast
[25] = system: MDA-MB-231 breast
[26] = system: MDA-MB-435
[27] = system: MOLT-4 leukemia
[28] = system: NCI-H226 lung
[29] = system: NCI-H23 lung
[30] = system: NCI-H460 lung
[31] = system: NCI-H522 lung
[32] = system: NCI/ADR-RES ovarian
[33] = system: OVCAR-3 ovarian
[34] = system: OVCAR-4 ovarian
[35] = system: OVCAR-5 ovarian
[36] = system: OVCAR-8 ovarian
[37] = system: PC-3 prostate
[38] = system: RPMI-8226 leukemia
[39] = system: RXF 393 renal
[40] = system: SF-268 CNS
[41] = system: SF-295 CNS
[42] = system: SF-539 CNS
[43] = system: SK-MEL-2 melanoma
[44] = system: SK-MEL-28 melanoma
[45] = system: SK-MEL-5 melanoma
[46] = system: SK-OV-3 ovarian
[47] = system: SN12C renal
[48] = system: SNB-19 CNS
[49] = system: SNB-75 CNS
[50] = system: SR leukemia
[51] = system: SW-620 colon
[52] = system: T-47D breast
[53] = system: TK-10 renal
[54] = system: U251 CNS
[55] = system: UACC-257 melanoma
[56] = system: UACC-62 melanoma
[57] = system: UO-31 renal

Compound `CN1CCCCC1CCN1c2ccccc2Sc2ccc(Br)cc21` (centres undefined) has a GI50 [1] of 2140 nM, a TGI [1] of 4.79 µM and a GI50 [2] of 2210 nM. The TGI [2] was 7.08 µM, the GI50 [3] was 2710 nM and the TGI [3] was 8.19 µM. The GI50 [4] was 3.54 µM, the TGI [4] was 11.9 µM and the GI50 [5] was 4.17 µM. The TGI [5] was 17.7 µM, the GI50 [6] was 2970 nM and the TGI [6] was 10.9 µM. The GI50 [7] was 2770 nM, the TGI [7] was 10.1 µM and the GI50 [8] was 2040 nM. For the same compound, the TGI [8] was 4.2 µM, the GI50 [9] was 3.7 µM and the TGI [9] was 12.6 µM. It also gave a GI50 [10] of 1970 nM, a TGI [10] of 4.11 µM and a GI50 [11] of 1880 nM. The TGI [11] was 3.67 µM, the GI50 [12] was 3.17 µM and the TGI [12] was 10.2 µM. For the same compound, the GI50 [13] was 2060 nM, the TGI [13] was 4.65 µM and the GI50 [14] was 5.46 µM. The TGI [14] was 22.8 µM, the GI50 [15] was 1400 nM and the TGI [15] was 4.72 µM. For the same compound, the GI50 [16] was 2060 nM, the TGI [16] was 5.85 µM and the GI50 [17] was 2510 nM. For the same compound, the TGI [17] was 6.92 µM, the GI50 [18] was 2370 nM and the TGI [18] was 6.37 µM. For the same compound, the GI50 [19] was 2180 nM, the TGI [19] was 5.98 µM and the GI50 [20] was 2220 nM. For the same compound, the TGI [20] was 4.78 µM, the GI50 [21] was 1990 nM and the TGI [21] was 3.91 µM. For the same compound, the GI50 [22] was 1830 nM, the TGI [22] was 3.34 µM and the GI50 [23] was 2080 nM. For the same compound, the TGI [23] was 4 µM, the GI50 [24] was 2060 nM and the TGI [24] was 4.27 µM. For the same compound, the GI50 [25] was 1800 nM, the TGI [25] was 4.18 µM and the GI50 [26] was 1980 nM. It also gave a TGI [26] of 4.24 µM, a GI50 [27] of 2830 nM and a TGI [27] of 7.83 µM. It also gave a GI50 [28] of 11.8 µM, a TGI [28] of 28.8 µM and a GI50 [29] of 4.44 µM. The TGI [29] was 17.1 µM, the GI50 [30] was 2290 nM and the TGI [30] was 5.01 µM. It also gave a GI50 [31] of 1730 nM, a TGI [31] of 3.49 µM and a GI50 [32] of 1980 nM. For the same compound, the TGI [32] was 4.13 µM, the GI50 [33] was 3.36 µM and the TGI [33] was 11.7 µM. It also gave a GI50 [34] of 3.6 µM, a TGI [34] of 13.6 µM and a GI50 [35] of 2450 nM. For the same compound, the TGI [35] was 7.65 µM, the GI50 [36] was 2110 nM and the TGI [36] was 4.47 µM. For the same compound, the GI50 [37] was 2810 nM, the TGI [37] was 8.76 µM and the GI50 [38] was 2240 nM. The TGI [38] was 5.49 µM, the GI50 [39] was 2180 nM and the TGI [39] was 6.46 µM. It also gave a GI50 [40] of 2440 nM, a TGI [40] of 6.61 µM and a GI50 [41] of 2130 nM. For the same compound, the TGI [41] was 4.94 µM, the GI50 [42] was 2020 nM and the TGI [42] was 4.01 µM. The GI50 [43] was 2500 nM, the TGI [43] was 5.94 µM and the GI50 [44] was 2040 nM. The TGI [44] was 4.37 µM, the GI50 [45] was 1780 nM and the TGI [45] was 3.47 µM. It also gave a GI50 [46] of 3.44 µM, a TGI [46] of 12.3 µM and a GI50 [47] of 3.23 µM. The TGI [47] was 11.9 µM, the GI50 [48] was 2920 nM and the TGI [48] was 12.4 µM. The GI50 [49] was 1650 nM, the TGI [49] was 5.56 µM and the GI50 [50] was 3.12 µM. It also gave a TGI [50] of 8.24 µM, a GI50 [51] of 2080 nM and a TGI [51] of 5.04 µM. For the same compound, the GI50 [52] was 3.61 µM, the TGI [52] was 14.4 µM and the GI50 [53] was 1990 nM. The TGI [53] was 5.14 µM, the GI50 [54] was 2130 nM and the TGI [54] was 4.66 µM. The GI50 [55] was 1910 nM, the TGI [55] was 3.55 µM and the GI50 [56] was 1830 nM. It also gave a TGI [56] of 4.1 µM, a GI50 [57] of 2680 nM and a TGI [57] of 10.8 µM.
